From patent publication US9474790B2, “Stable, protracted GLP-1/glucagon receptor co-agonists for medical use” (Novo Nordisk A/S, priority 2013, dated 2016)
pIC50: −log10 of the molar value. Numbered stars: 1 amine (or outer) side, 2 acyl side, 3 side chain; on linkers, the order of the positions; unused ones are H or OH. Bridge positions count the residues as written; N and C are the ends. Square brackets hold non-standard residues; d marks the D form. Side chains are listed from the residue outwards. Peptide text beside a SMILES is read from it. I, II: the chains in the order shown. * marks the point of attachment. C18 diacid = O=C(O)CCCCCCCCCCCCCCCCC(=O)*; γGlu = O=C(O)[C@H](CCC(=O)[*:2])N[*:1]; Ac4c = NC1(C(=O)O)CCC1; AEEA = NCCOCCOCC(=O)O; Aib = CC(C)(N)C(=O)O

Legend:
[1] = Chemical stability assessment by RP-UPLC; assay type: physicochemical; conditions: 333 μM, 8 mM phosphate buffer pH 7.3, 37° C. vs 5° C.
In short: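 Purity loss = (purity after 14 days at 5° C. minus that at 37° C.) relative to the 5° C. value, purity being main-peak area % by RP-UPLC with UV at 215 nm. Samples were 333 μM in 8 mM phosphate, pH 7.3; gradient adjusted for outlying retention times.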

[2] = molecular target: T1, human glucagon receptor (Homo sapiens, UniProt P47871); test: Glucagon receptor binding, 125I-glucagon displacement SPA on isolated membranes; conditions: displacement of 125I-glucagon from membranes; read-out: IC50 GlucR
T1 construct: expressed in transfected cells; host or cells: BHK cells (parent BHK570, CRE luciferase clone BHK/KZ10-20-48), clone pLJ6'-4-25
T1 sequence (P47871 26-477): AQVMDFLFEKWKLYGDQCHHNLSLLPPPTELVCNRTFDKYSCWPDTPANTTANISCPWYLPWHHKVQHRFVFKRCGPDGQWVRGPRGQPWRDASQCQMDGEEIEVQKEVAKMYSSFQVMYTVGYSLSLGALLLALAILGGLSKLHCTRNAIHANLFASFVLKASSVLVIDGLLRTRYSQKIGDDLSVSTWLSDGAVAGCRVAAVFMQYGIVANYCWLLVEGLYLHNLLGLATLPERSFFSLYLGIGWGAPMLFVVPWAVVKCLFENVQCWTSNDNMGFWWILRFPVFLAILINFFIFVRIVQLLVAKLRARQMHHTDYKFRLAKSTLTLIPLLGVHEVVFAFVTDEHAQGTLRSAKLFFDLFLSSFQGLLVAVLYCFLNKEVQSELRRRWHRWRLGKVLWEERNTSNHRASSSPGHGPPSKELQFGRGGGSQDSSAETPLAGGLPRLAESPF
In short: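 Displacement IC50 derived by non-linear regression of SPA counts after 2 h, 25 °C incubation of compound with [125I]-glucagon (480 pM solution, 25 μl) and membranes of hGCGR-transfected BHK cells. Buffer was HEPES pH 7.4 with ovalbumin; serum albumin was held at 0.001% max or 0.2% final.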

SMILES	Purity loss; 14 days at 37° C. [1]	pIC50 [2]
CC(C)C[C@H](NC(=O)[C@H](Cc1ccc(O)cc1)NC(=O)[C@H](CCCCN)NC(=O)[C@H](CO)NC(=O)[C@H](CC(C)C)NC(=O)[C@H](CC(=O)O)NC(=O)[C@H](CO)NC(=O)[C@@H](NC(=O)[C@H](Cc1ccccc1)NC(=O)[C@@H](NC(=O)CNC(=O)[C@H](CCC(N)=O)NC(=O)C1(NC(=O)[C@@H](N)Cc2c[nH]cn2)CCC1)[C@@H](C)O)[C@@H](C)O)C(=O)N[C@@H](CCC(=O)O)C(=O)N[C@@H](CO)C(=O)N[C@@H](CCCCN)C(=O)N[C@@H](CCCNC(=N)N)C(=O)N[C@@H](C)C(=O)N[C@@H](CCCNC(=N)N)C(=O)N[C@@H](CCC(=O)O)C(=O)N[C@@H](Cc1ccccc1)C(=O)N[C@H](C(=O)N[C@@H](CCC(N)=O)C(=O)N[C@@H](Cc1c[nH]c2ccccc12)C(=O)N[C@@H](CC(C)C)C(=O)N[C@@H](CC(C)C)C(=O)N[C@@H](CCCCNC(=O)CNC(=O)[C@H](CO)NC(=O)[C@H](CCC(=O)O)NC(=O)CNC(=O)[C@H](CO)NC(=O)CC[C@H](NC(=O)CC[C@H](NC(=O)CCCCCCCCCCCCCCCCC(=O)O)C(=O)O)C(=O)O)C(=O)N[C@H](C(N)=O)[C@@H](C)O)C(C)C [Example 36, N^ε28-[2-[[(2S)-2-[[(2S)-4-carboxy-2-[[2-[[(2S)-2-[[(4S)-4-carboxy-4-[[(4S)-4-carboxy-4-(17-carboxyheptadecanoylamino)butanoyl]amino]butanoyl]amino]-3-hydroxypropanoyl]amino]acetyl]amino]butanoyl]amino]-3-hydroxypropanoyl]amino]acetyl]-[Acb2,Leu10,Glu15,Lys17, Arg20,Glu21,Leu27,Lys28]-Glucagon amide] (I: H-H[Ac4c]QGTFTSDLSKYLESKRAREFVQWLLKT-NH2 / II: {C18 diacid-γGlu-γGlu}-SGESG; amide I:28-II:C; N-terminus assumed)	2%	9.22
CC(C)C[C@H](NC(=O)[C@H](Cc1ccc(O)cc1)NC(=O)[C@H](CCCCN)NC(=O)[C@H](CO)NC(=O)[C@H](CC(C)C)NC(=O)[C@H](CC(=O)O)NC(=O)[C@H](CO)NC(=O)[C@@H](NC(=O)[C@H](Cc1ccccc1)NC(=O)[C@@H](NC(=O)CNC(=O)[C@H](CCC(N)=O)NC(=O)C(C)(C)NC(=O)[C@@H](N)Cc1c[nH]cn1)[C@@H](C)O)[C@@H](C)O)C(=O)N[C@@H](CCC(=O)O)C(=O)N[C@@H](CO)C(=O)N[C@@H](CCCNC(=N)N)C(=O)N[C@@H](CCCNC(=N)N)C(=O)N[C@@H](C)C(=O)N[C@@H](CCCNC(=N)N)C(=O)N[C@@H](CCC(=O)O)C(=O)N[C@@H](Cc1ccccc1)C(=O)N[C@H](C(=O)N[C@@H](CCC(N)=O)C(=O)N[C@@H](Cc1c[nH]c2ccccc12)C(=O)N[C@@H](CC(C)C)C(=O)N[C@@H](CC(C)C)C(=O)N[C@@H](CCCCNC(=O)CC[C@H](NC(=O)CC[C@H](NC(=O)COCCOCCNC(=O)COCCOCCNC(=O)CC[C@H](NC(=O)CC[C@H](NC(=O)CCCCCCCCCCCCCCCCC(=O)O)C(=O)O)C(=O)O)C(=O)O)C(=O)O)C(=O)N[C@H](C(N)=O)[C@@H](C)O)C(C)C [Example 60, N^ε28-[(4S)-4-carboxy-4-[[(4S)-4-carboxy-4-[[2-[2-[2-[[2-[2-[2-[[(4S)-4-carboxy-4-[[(4S)-4-carboxy-4-(17-carboxyheptadecanoylamino)butanoyl]amino]butanoyl]amino]ethoxy]ethoxy]acetyl]amino]ethoxy]ethoxy]acetyl]amino]butanoyl]amino]butanoyl]-[Aib2,Leu10,Glu15,Arg20,Glu21,Leu27,Lys28]-Glucagon amide] (H-H[Aib]QGTFTSDLSKYLESRRAREFVQWLLK([γGlu-γGlu-AEEA-AEEA-γGlu-γGlu-C18 diacid])T-NH2; N-terminus assumed)	4%	8.40
CC(C)C[C@H](NC(=O)[C@H](Cc1ccc(O)cc1)NC(=O)[C@H](CCCCN)NC(=O)[C@H](CO)NC(=O)[C@H](CC(C)C)NC(=O)[C@H](CC(=O)O)NC(=O)[C@H](CO)NC(=O)[C@@H](NC(=O)[C@H](Cc1ccccc1)NC(=O)[C@@H](NC(=O)CNC(=O)[C@H](CCC(N)=O)NC(=O)C1(NC(=O)[C@@H](N)Cc2c[nH]cn2)CCC1)[C@@H](C)O)[C@@H](C)O)C(=O)N[C@@H](CCC(=O)O)C(=O)N[C@@H](CO)C(=O)N[C@@H](CCCNC(=N)N)C(=O)N[C@@H](CCCNC(=N)N)C(=O)N[C@@H](C)C(=O)N[C@@H](CCCNC(=N)N)C(=O)N[C@@H](CCC(=O)O)C(=O)N[C@@H](Cc1ccccc1)C(=O)N[C@H](C(=O)N[C@@H](CCC(N)=O)C(=O)N[C@@H](Cc1c[nH]c2ccccc12)C(=O)N[C@@H](CC(C)C)C(=O)N[C@@H](CC(C)C)C(=O)N[C@@H](CCCCNC(=O)CC[C@H](NC(=O)CC[C@H](NC(=O)COCCOCCNC(=O)COCCOCCNC(=O)CC[C@H](NC(=O)CCCCCCCCCCCCCCCCC(=O)O)C(=O)O)C(=O)O)C(=O)O)C(=O)N[C@H](C(N)=O)[C@@H](C)O)C(C)C [Example 44, N^ε28-[(4S)-4-carboxy-4-[[(4S)-4-carboxy-4-[[2-[2-[2-[[2-[2-[2-[[(4S)-4-carboxy-4-(17-carboxyheptadecanoylamino)butanoyl]amino]ethoxy]ethoxy]acetyl]amino]ethoxy]ethoxy]acetyl]amino]butanoyl]amino]butanoyl]-[Acb2,Leu10,Glu15,Arg20,Glu21,Leu27,Lys28]-Glucagon amide] (H-H[Ac4c]QGTFTSDLSKYLESRRAREFVQWLLK([γGlu-γGlu-AEEA-AEEA-γGlu-C18 diacid])T-NH2; N-terminus assumed)	2%	8.14

Second part, the compound after the results:

Purity loss; 14 days at 37° C. [1]	pIC50 [2]	SMILES
4%	8.82	CC(C)C[C@H](NC(=O)[C@H](Cc1ccc(O)cc1)NC(=O)[C@H](CCCCN)NC(=O)[C@H](CO)NC(=O)[C@H](CC(C)C)NC(=O)[C@H](CC(=O)O)NC(=O)[C@H](CO)NC(=O)[C@@H](NC(=O)[C@H](Cc1ccccc1)NC(=O)[C@@H](NC(=O)CNC(=O)[C@H](CCC(N)=O)NC(=O)C(C)(C)NC(=O)[C@@H](N)Cc1c[nH]cn1)[C@@H](C)O)[C@@H](C)O)C(=O)N[C@@H](CCC(=O)O)C(=O)N[C@@H](CO)C(=O)N[C@@H](CCCNC(=N)N)C(=O)N[C@@H](CCCNC(=N)N)C(=O)N[C@@H](C)C(=O)N[C@@H](CCCNC(=N)N)C(=O)N[C@@H](CCC(=O)O)C(=O)N[C@@H](Cc1ccccc1)C(=O)N[C@H](C(=O)N[C@@H](CCC(N)=O)C(=O)N[C@@H](Cc1c[nH]c2ccccc12)C(=O)N[C@@H](CC(C)C)C(=O)N[C@@H](CC(C)C)C(=O)N[C@@H](CCCCNC(=O)CC[C@H](NC(=O)CC[C@H](NC(=O)[C@H](CO)NC(=O)[C@H](CCC(=O)O)NC(=O)[C@H](CO)NC(=O)CC[C@H](NC(=O)CC[C@H](NC(=O)CCCCCCCCCCCCCCCCC(=O)O)C(=O)O)C(=O)O)C(=O)O)C(=O)O)C(=O)N[C@H](C(N)=O)[C@@H](C)O)C(C)C [Example 67, N^ε28-[(4S)-4-carboxy-4-[[(4S)-4-carboxy-4-[[(2S)-2-[[(2S)-4-carboxy-2-[[(2S)-2-[[(4S)-4-carboxy-4-[[(4S)-4-carboxy-4-(17-carboxyheptadecanoylamino)butanoyl]amino]butanoyl]amino]-3-hydroxypropanoyl]amino]butanoyl]amino]-3-hydroxypropanoyl]amino]butanoyl]amino]butanoyl]-[Aib2,Leu10,Glu15,Arg20,Glu21,Leu27,Lys28]-Glucagon amide] (H-H[Aib]QGTFTSDLSKYLESRRAREFVQWLLK([γGlu-γGlu-Ser-Glu-Ser-γGlu-γGlu-C18 diacid])T-NH2; N-terminus assumed)
1%	8.07	CC(C)C[C@H](NC(=O)[C@H](CC(=O)O)NC(=O)[C@H](CC(C)C)NC(=O)[C@H](Cc1ccc(O)cc1)NC(=O)[C@H](CCCNC(=N)N)NC(=O)[C@H](CO)NC(=O)[C@H](CC(C)C)NC(=O)[C@H](CC(=O)O)NC(=O)[C@H](CO)NC(=O)[C@@H](NC(=O)[C@H](Cc1ccccc1)NC(=O)[C@@H](NC(=O)CNC(=O)[C@H](CCC(N)=O)NC(=O)C1(NC(=O)[C@@H](N)Cc2c[nH]cn2)CCC1)[C@@H](C)O)[C@@H](C)O)C(=O)N[C@@H](CCCNC(=N)N)C(=O)N[C@@H](CCCNC(=N)N)C(=O)N[C@@H](C)C(=O)N[C@@H](CCCNC(=N)N)C(=O)N[C@@H](CC(=O)O)C(=O)N[C@@H](Cc1ccccc1)C(=O)N[C@H](C(=O)N[C@@H](CCC(N)=O)C(=O)N[C@@H](Cc1c[nH]c2ccccc12)C(=O)N[C@@H](CC(C)C)C(=O)N[C@@H](CC(C)C)C(=O)N[C@@H](CCCCNC(=O)CC[C@H](NC(=O)CC[C@H](NC(=O)COCCOCCNC(=O)COCCOCCNC(=O)CC[C@H](NC(=O)CC[C@H](NC(=O)CCCCCCCCCCCCCCCCC(=O)O)C(=O)O)C(=O)O)C(=O)O)C(=O)O)C(=O)N[C@H](C(N)=O)[C@@H](C)O)C(C)C [Example 46, N^ε28-[(4S)-4-carboxy-4-[[(4S)-4-carboxy-4-[[2-[2-[2-[[2-[2-[2-[[(4S)-4-carboxy-4-[[(4S)-4-carboxy-4-(17-carboxyheptadecanoylamino)butanoyl]amino]butanoyl]amino]ethoxy]ethoxy]acetyl]amino]ethoxy]ethoxy]acetyl]amino]butanoyl]amino]butanoyl]-[Acb2,Leu10,Arg12,Leu16,Arg20,Leu27,Lys28]-Glucagon amide] (H-H[Ac4c]QGTFTSDLSRYLDLRRARDFVQWLLK([γGlu-γGlu-AEEA-AEEA-γGlu-γGlu-C18 diacid])T-NH2; N-terminus assumed)
